Key:
B-RAF G466V = target: T1, B-RAF G466V (Homo sapiens, UniProt P15056, G466V); test: Target protein degradation, assay D: T-Rex 293 cells, HA-BRAF_G466V, 384 well format; assay type: cell-based; conditions: T-Rex 293 HA-BRAF_G466V cells, 24 hours, Examples 83-269; for DC50: Assay D; for Dmax: T-REx-293, Assay D
T1 construct: expressed in transfected cells; host or cells: T-Rex 293 cells (Invitrogen #R71007)
How it was run: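 Degradation measured by high-content imaging of anti-HA immunofluorescence in fixed T-Rex 293 cells carrying inducible HA-BRAF G466V (1 ng/mL doxycycline), after 24 h PROTAC exposure at 37 °C over 300 nM–5 pM (1:3, 11 points, 0.5% DMSO). Outputs DC50 and Dmax as % of control; nuclei counts against DMSO wells gauge toxicity.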

B-RAF V600E = target: T2, B-RAF V600E (Homo sapiens, UniProt P15056, V600E); test: Target protein degradation, assay C: T-Rex 293 cells, HA-BRAF_V600E, 384 well format; assay type: cell-based; conditions: T-Rex 293 HA-BRAF_V600E cells, 24 hours, Examples 83-269; for DC50: Assay C; for Dmax: T-REx-293, Assay C
T2 construct: expressed in transfected cells; host or cells: T-Rex 293 cells (Invitrogen #R71007)
How it was run: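 After 24 h exposure to an 11-point 1:3 series (300 nM–5 pM, 0.5% DMSO), fixed T-Rex 293 cells carrying HA-BRAF V600E (induced with 1 ng/mL doxycycline) were stained anti-HA and imaged. DC50 and Dmax were derived from BRAF intensity relative to control, and cytotoxicity from nuclear counts.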

T2 sequence (P15056 whole entry V600E): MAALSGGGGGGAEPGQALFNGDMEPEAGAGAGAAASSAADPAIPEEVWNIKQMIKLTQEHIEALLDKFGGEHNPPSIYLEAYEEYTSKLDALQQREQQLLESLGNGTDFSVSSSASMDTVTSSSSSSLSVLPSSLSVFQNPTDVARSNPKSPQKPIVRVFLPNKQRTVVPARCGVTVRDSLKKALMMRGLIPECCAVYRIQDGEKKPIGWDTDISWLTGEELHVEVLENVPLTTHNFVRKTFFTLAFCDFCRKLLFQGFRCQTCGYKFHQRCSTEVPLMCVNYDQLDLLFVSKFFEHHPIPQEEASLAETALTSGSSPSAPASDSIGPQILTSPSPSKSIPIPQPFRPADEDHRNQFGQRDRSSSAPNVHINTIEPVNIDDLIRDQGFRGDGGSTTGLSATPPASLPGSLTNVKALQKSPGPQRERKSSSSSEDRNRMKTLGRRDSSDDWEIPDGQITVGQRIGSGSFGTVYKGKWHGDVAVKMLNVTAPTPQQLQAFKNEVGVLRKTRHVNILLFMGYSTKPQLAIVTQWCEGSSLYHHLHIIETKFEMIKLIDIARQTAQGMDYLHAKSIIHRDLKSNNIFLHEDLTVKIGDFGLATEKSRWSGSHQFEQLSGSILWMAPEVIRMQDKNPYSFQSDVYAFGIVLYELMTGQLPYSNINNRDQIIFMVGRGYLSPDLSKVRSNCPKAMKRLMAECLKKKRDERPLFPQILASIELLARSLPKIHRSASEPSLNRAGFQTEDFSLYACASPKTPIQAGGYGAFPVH
T1 sequence (P15056 whole entry G466V): as the sequence (P15056 whole entry V600E) above, with G466V, E600V counted along it

SMILES	DC50 (B-RAF G466V) [µM]	Dmax (B-RAF G466V) [%]	DC50 (B-RAF V600E) [µM]	Dmax (B-RAF V600E) [%]
CC(=O)N(CC1CCN(c2ccc(-n3cnc4ccc(Oc5c(F)ccc(NS(=O)(=O)N6CC[C@@H](F)C6)c5C#N)cc4c3=O)cc2)CC1)[C@H]1C[C@@H](Oc2ccc3c(c2)CN([C@H]2CCC(=O)NC2=O)C3=O)C1 [Example 268, N-{[1-(4-{6-[2-cyano-6-fluoro-3-({[(3R)-3-fluoropyrrolidin-1-yl]sulfonyl}amino)phenoxy]-4-oxo-3,4-dihydroquinazolin-3-yl}phenyl)piperidin-4-yl]methyl}-N-[(1r,3r)-3-({2-[(3S)-2,6-dioxopiperidin-3-yl]-1-oxo-2,3-dihydro-1H-isoindol-5-yl}oxy)cyclobutyl]acetamide]	0.01 to 0.03	≤ 35	> 0.5	–
N#Cc1c(NS(=O)(=O)N2CC[C@@H](F)C2)ccc(F)c1Oc1ccc2ncn(-c3ccc(N4CCC(CN5CC6(CCC(c7ccc8c(c7)CN([C@H]7CCC(=O)NC7=O)C8=O)CC6)C5)CC4)cc3)c(=O)c2c1 [Example 219, (3R)-N-(2-cyano-3-{[3-(4-{4-[(7-{2-[(3S)-2,6-dioxopiperidin-3-yl]-1-oxo-2,3-dihydro-1H-isoindol-5-yl}-2-azaspiro[3.5]nonan-2-yl)methyl]piperidin-1-yl}phenyl)-4-oxo-3,4-dihydroquinazolin-6-yl]oxy}-4-fluorophenyl)-3-fluoropyrrolidine-1-sulfonamide]	0.001 to 0.01	35 to 70	0.05 to 0.5	35 to 70
N#Cc1c(NS(=O)(=O)N2CC[C@@H](F)C2)ccc(F)c1Oc1ccc2ncn(-c3ccn(C4CC5(C4)CN(CC4CCN(c6ccc7c(c6)CN(C6CCC(=O)NC6=O)C7=O)CC4)C5)n3)c(=O)c2c1 (stereo partly drawn) [Example 97, (3R)-N-{2-cyano-3-[(3-{1-[2-({1-[2-(2,6-dioxopiperidin-3-yl)-1-oxo-2,3-dihydro-1H-isoindol-5-yl]piperidin-4-yl}methyl)-2-azaspiro[3.3]heptan-6-yl]-1H-pyrazol-3-yl}-4-oxo-3,4-dihydroquinazolin-6-yl)oxy]-4-fluorophenyl}-3-fluoropyrrolidine-1-sulfonamide]	0.001 to 0.01	35 to 70	0.05 to 0.5	35 to 70
N#Cc1c(NS(=O)(=O)N2CC[C@@H](F)C2)ccc(F)c1Oc1ccc2ncn(-c3ccc(N4CCC(CN5CC(c6ccc7c(c6)CN([C@H]6CCC(=O)NC6=O)C7=O)C5)CC4)cc3)c(=O)c2c1 [Example 215, (3R)-N-(2-cyano-3-{[3-(4-{4-[(3-{2-[(3S)-2,6-dioxopiperidin-3-yl]-1-oxo-2,3-dihydro-1H-isoindol-5-yl}azetidin-1-yl)methyl]piperidin-1-yl}phenyl)-4-oxo-3,4-dihydroquinazolin-6-yl]oxy}-4-fluorophenyl)-3-fluoropyrrolidine-1-sulfonamide]	0.001 to 0.01	≤ 35	0.05 to 0.5	35 to 70
N#Cc1c(NS(=O)(=O)N2CC[C@@H](F)C2)ccc(F)c1Oc1ccc2ncn(-c3ccc(N4CCC(CN5CC6(C5)CN(c5ccc7c(c5)C(=O)N(C5CCC(=O)NC5=O)C7=O)C6)CC4)nc3)c(=O)c2c1 (stereo partly drawn) [Example 171, (3R)-N-{2-cyano-3-[(3-{6-[4-({6-[2-(2,6-dioxopiperidin-3-yl)-1,3-dioxo-2,3-dihydro-1H-isoindol-5-yl]-2,6-diazaspiro[3.3]heptan-2-yl}methyl)piperidin-1-yl]pyridin-3-yl}-4-oxo-3,4-dihydroquinazolin-6-yl)oxy]-4-fluorophenyl}-3-fluoropyrrolidine-1-sulfonamide]	0.001 to 0.01	35 to 70	0.05 to 0.5	35 to 70
N#Cc1c(NS(=O)(=O)N2CC[C@@H](F)C2)ccc(F)c1Oc1ccc2ncn(-c3ccc(N4CCC(CN5CCC6(CCC(c7ccc8c(c7)CN([C@H]7CCC(=O)NC7=O)C8=O)CC6)CC5)CC4)cc3)c(=O)c2c1 [Example 262, (3R)-N-(2-cyano-3-{[3-(4-{4-[(9-{2-[(3S)-2,6-dioxopiperidin-3-yl]-1-oxo-2,3-dihydro-1H-isoindol-5-yl}-3-azaspiro[5.5]undecan-3-yl)methyl]piperidin-1-yl}phenyl)-4-oxo-3,4-dihydroquinazolin-6-yl]oxy}-4-fluorophenyl)-3-fluoropyrrolidine-1-sulfonamide]	0.001 to 0.01	≥ 70	0.005 to 0.05	≥ 70
N#Cc1c(NS(=O)(=O)N2CC[C@@H](F)C2)ccc(F)c1Oc1ccc2ncn(-c3ccc(N4CCC(CN5CC6(CCC(c7ccc8c(c7)CN([C@@H]7CCC(=O)NC7=O)C8=O)CC6)C5)CC4)cc3)c(=O)c2c1 [Example 220, (3R)-N-(2-cyano-3-{[3-(4-{4-[(7-{2-[(3R)-2,6-dioxopiperidin-3-yl]-1-oxo-2,3-dihydro-1H-isoindol-5-yl}-2-azaspiro[3.5]nonan-2-yl)methyl]piperidin-1-yl}phenyl)-4-oxo-3,4-dihydroquinazolin-6-yl]oxy}-4-fluorophenyl)-3-fluoropyrrolidine-1-sulfonamide]	0.01 to 0.03	35 to 70	0.05 to 0.5	35 to 70
Cn1c(=O)n(C2CCC(=O)NC2=O)c2cccc(N3CC4(CC(CN5CCN(c6ccc(-n7cnc8ccc(Oc9c(F)ccc(NS(=O)(=O)N%10CC[C@@H](F)C%10)c9C#N)cc8c7=O)cc6)CC5)C4)C3)c21 (stereo partly drawn) [Example 246, (3R)-N-{2-cyano-3-[(3-{4-[4-({2-[1-(2,6-dioxopiperidin-3-yl)-3-methyl-2-oxo-2,3-dihydro-1H-1,3-benzodiazol-4-yl]-2-azaspiro[3.3]heptan-6-yl}methyl)piperazin-1-yl]phenyl}-4-oxo-3,4-dihydroquinazolin-6-yl)oxy]-4-fluorophenyl}-3-fluoropyrrolidine-1-sulfonamide]	0.001 to 0.01	35 to 70	0.05 to 0.5	35 to 70

Now from value to compound:

DC50 (B-RAF G466V) [µM]	Dmax (B-RAF G466V) [%]	DC50 (B-RAF V600E) [µM]	Dmax (B-RAF V600E) [%]	SMILES
0.001 to 0.01	35 to 70	0.05 to 0.5	35 to 70	N#Cc1c(NS(=O)(=O)N2CC[C@@H](F)C2)ccc(F)c1Oc1ccc2ncn(-c3ccc(N4CCN([C@H]5C[C@H](OC6CCN(c7ccc8c(c7)CN(C7CCC(=O)NC7=O)C8=O)CC6)C5)CC4)cc3)c(=O)c2c1 (stereo partly drawn) [Example 251, (3R)-N-(2-cyano-4-fluoro-3-{[4-oxo-3-(4-(4-[(1r,3r)-3-({1-[2-(2,6-dioxopiperidin-3-yl)-1-oxo-2,3-dihydro-1H-isoindol-5-yl]piperidin-4-yl}oxy)cyclobutyl]piperazin-1-yl}phenyl)-3,4-dihydroquinazolin-6-yl]oxy}phenyl)-3-fluoropyrrolidine-1-sulfonamide]
0.001 to 0.01	35 to 70	0.05 to 0.5	35 to 70	CN(c1ccc2c(c1)CN([C@H]1CCC(=O)NC1=O)C2=O)C1CCC2(CC1)CCN(CC1CCN(c3ccc(-n4cnc5ccc(Oc6c(F)ccc(NS(=O)(=O)N7CC[C@@H](F)C7)c6C#N)cc5c4=O)cc3)CC1)CC2 [Example 222, (3R)-N-[2-cyano-3-({3-[4-(4-{[9-({2-[(3S)-2,6-dioxopiperidin-3-yl]-1-oxo-2,3-dihydro-1H-isoindol-5-yl}(methyl)amino)-3-azaspiro[5.5]undecan-3-yl]methyl}piperidin-1-yl)phenyl]-4-oxo-3,4-dihydroquinazolin-6-yl}oxy)-4-fluorophenyl]-3-fluoropyrrolidine-1-sulfonamide]
0.001 to 0.01	35 to 70	0.005 to 0.05	35 to 70	N#Cc1c(NS(=O)(=O)N2CC[C@@H](F)C2)ccc(F)c1Oc1ccc2ncn(-c3cnc(N4CCN(CCN5CCN(c6ccc(C7CCC(=O)NC7=O)cc6F)CC5)CC4)nc3)c(=O)c2c1 (stereo partly drawn) [Example 175, (3R)-N-{2-cyano-3-[(3-{2-[4-(2-{4-[4-(2,6-dioxopiperidin-3-yl)-2-fluorophenyl]piperazin-1-yl}ethyl)piperazin-1-yl]pyrimidin-5-yl}-4-oxo-3,4-dihydroquinazolin-6-yl)oxy]-4-fluorophenyl}-3-fluoropyrrolidine-1-sulfonamide]
≤ 0.001	35 to 70	0.005 to 0.05	≤ 35	COc1cc(-n2cnc3ccc(Oc4c(F)ccc(NS(=O)(=O)N5CC[C@@H](F)C5)c4C#N)cc3c2=O)ccc1N1CCN(CC2CCN(c3ccc4c(c3)CN(C3CCC(=O)NC3=O)C4=O)CC2)CC1 (stereo partly drawn) [Example 88, (3R)-N-{2-cyano-3-[(3-{4-[4-({1-[2-(2,6-dioxopiperidin-3-yl)-1-oxo-2,3-dihydro-1H-isoindol-5-yl]piperidin-4-yl}methyl)piperazin-1-yl]-3-methoxyphenyl}-4-oxo-3,4-dihydroquinazolin-6-yl)oxy]-4-fluorophenyl}-3-fluoropyrrolidine-1-sulfonamide]
≤ 0.001	≤ 35	0.005 to 0.05	35 to 70	N#Cc1c(NS(=O)(=O)N2CC[C@@H](F)C2)ccc(F)c1Oc1ccc2ncn(-c3ccc(N4CCN(CC5CCN(c6ccc7c(c6)CN(C6CCC(=O)NC6=O)C7=O)CC5)CC4)c(F)c3)c(=O)c2c1 (stereo partly drawn) [Example 86, (3R)-N-{2-cyano-3-[(3-(4-[4-({1-[2-(2,6-dioxopiperidin-3-yl)-1-oxo-2,3-dihydro-1H-isoindol-5-yl]piperidin-4-yl}methyl)piperazin-1-yl]-3-fluorophenyl}-4-oxo-3,4-dihydroquinazolin-6-yl)oxy]-4-fluorophenyl}-3-fluoropyrrolidine-1-sulfonamide]

— patent publication US11957759B1, “Rapidly accelerated fibrosarcoma (RAF) degrading compounds and associated methods of use” (Arvinas Operations, Inc., priority 2022, dated 2024)
